Data as given in patent US5756491A, “Antiviral cobalt-organic compounds” (priority 1991, dated 1998).

Experiments:
HSV-2 (MS strain) = assay: External genital lesion development in primary genital HSV-2 infection of guinea pigs; type: in vivo, Female Hartley strain guinea pigs; parameters: key to Lesion Score-Day Area Under Curve: area under 0-5+ lesion score vs day curve (score-days); key to Mean Peak Lesion Score: lesion severity on 0-5+ scale; conditions: 20 mg/ml
Procedure: A series of studies were carried out to compare the activity of inventive antiviral Compounds 23, 76, and 82 in a primary genital HSV-2 infection of guinea pigs. The experiments were placebo-controlled and uninfected animals were treated with three concentrations of each of the preparations to assess skin irritation and determine the maximum tolerated dose.
The MS strain of HSV-2 was utilized for the experimental animal infection. Female Hartley strain guinea pigs (Charles River Breeding Laboratories, Kingston, N.Y.) weighing 250-300 g were inoculated intravaginally with 1.4×10^5 plaque forming units of HSV-2 one hour after being swabbed for the removal of vaginal secretions.
Groups of 10 infected guinea pigs were treated topically as stated above with 20 mg/ml (the maximum tolerated dose) of each compound beginning 6 h or 24 h after inoculation with HSV-2.
To determine the effect of therapy on the development and spread of external genital lesions, lesion severity was scored on a 0-5+ scale through the primary infection (21 days). Mean peak lesion scores and the areas under the lesion score-day curves were calculated and analyzed.
The number of animals infected over the number inoculated, lesion score-day areas and virus titer-day areas under the curve, peak lesion scores and peak virus titers between untreated and placebo-treated or placebo-treatedand drug-treated animals were compared using the Mann-Whitney U rank sum test. A p-value of 0.05 or less was considered significant.

HSV-2 = HSV-2 plaque reduction assay; type: cell-based; parameters: unit not given beside the values; conditions: for IC50: toxicity IC50
Procedure: (§1) Two days prior to use, HFF cells are plated into six well plates and incubated at 37° C. with 5% CO2 and 90% humidity. On the date of assay, the drug is made up at twice the desired concentration in 2×MEM and then serially diluted 1:5 in 2×MEM using six concentrations of drug. The initial starting concentration is usually 200 μg/ml down to 0.06 μg/ml. The virus to be used is diluted in MEM containing 10% FBS to a desired concentration which will give 20-30 plaques per well. The media is then aspirated from the wells and 0.2 ml of virus is added to each well in duplicate with 0.2 ml of media being added to drug toxicity wells. The plates are then incubated for one hour with shaking every fifteen minutes. After the incubation period, an equal amount of 1% agarose was added to a equal volume of each drug dilution. This will give final drug concentrations beginning with 100 μg/ml and ending with 0.03 μg/ml and a final agarose overlay concentration of 0.5%. The drug agarose mixture is applied to each well in 2 ml volume and the plates then incubated for three days, after which the cells were stained with a 1.5% solution of neutral red. At the end of 4-6 hr incubation period, the stain is aspirated, and plaques counted using a stereomicroscope at 1×magnification.
(§2) The procedure for the liquid overlay plaque assay is similar to that using the agarose overlay. The procedure for adding the virus is the same as for the regular plaque assay. The drugs are made up in a concentration to be used in MEM with 2% FBS. The drugs are not made up at 2×concentration as in previous assays but are made up at the desired concentration. For HSV-1 and HSV-2 assays, an antibody preparation obtained from Baxter Health Care Corporation is diluted 1:500 and added to the media that the drug is diluted in. For CMV and VZV, no antibody in the overlay is utilized. For the CMV assay, additional medium without new drug is added on day six and allowed to incubate for a total of 11 days. For VZV, additional media is added on day five and incubated for a total of eight days. At the end of the incubation period for all of the assays, the medium is removed, the cells washed and then stained with 0.1% crystal violet solution for ten minutes. The cells are then rinsed several times to remove any excess crystal violet and plaques enumerated using a stereomicroscope.
(§3) I. EC50 values were also determined for each of the viruses tested for known antiviral agents. The comparison compound was ACV for all viruses except for HCMV aherein DHPG was the comparison compound. In Table 26, these comparison EC50 values are indicated with an asterisk. In Table 27, the drug FIAU (2'-fluoro-5-iodo-arabinosyl-uracil) was used as a control.

HSV-1 = HSV-1 plaque reduction assay; type: cell-based; parameters: IC50: unit not given beside the values; conditions: for IC50: toxicity IC50
Procedure: as §1, §2, §3

[1] = Procedure: A stock solution of each compound to be tested at a concentration of 5 mg/ml was prepared. The stock solution was serially diluted in Hank's Balanced Salt Solution (HBSS) to obtain final drug concentrations of 5, 2, 1, 0.5, 0.1, 0.01, 0.001 and 0.0001 mg/ml. […] In such cases, the highest dissolved concentration that could be obtained was utilized.
Concentrations of compounds 93, 96, and 23 were prepared as follows: A stock solution of each compound at a concentration of 5 mg/ml was made. This stock solution was serially diluted in Hanks Balanced Salt Solution to obtain final drug concentrations of: 5, 2, 1, 0.5, 0.1, 0.01, 0.001, and 0.0001 mg/ml. Five hundred μl of each drug concentration were added to triplicate infected monolayers.

Structure (SMILES) | Lesion Score-Day Area Under Curve (HSV-2 (MS strain); started +6h) | Mean Peak Lesion Score (HSV-2 (MS strain); started +6h) | P-Value for Mean Peak Lesion Score (HSV-2 (MS strain); started +6h) | Lesion Score-Day Area Under Curve (HSV-2 (MS strain); started +24h) | Mean Peak Lesion Score (HSV-2 (MS strain); started +24h) | EC50 (HSV-2) | IC50 (HSV-2) | EC50 (HSV-1) | IC50 (HSV-1) | solubility at 5 and 2 mg/ml [1] | solubility of stock solution at 1 mg/ml [1]
CC([O-])=CC(C)=NCCN=C(C)C=C(C)[O-].[Cl-].[Co+3].c1c[nH]cn1.c1c[nH]cn1 [Compound 82] | 3.5 | 0.7 | < 0.001 | 53.8 | 3.4 |  |  |  |  |  | 
CC1=CC(C)=[N+]2CC[N+]3=C(C)C=C(C)[O][Co-3]23([NH3+])([NH3+])[O]1.[Cl-] [Compound 23, reference compound] | 0.0 | 0.0 | < 0.001 | 43.8 | 3.4 | > 4 | 7.0 | > 4 | 7.0 |  | 
CC(=NCCN=C(C)C(Cl)=C(C)[O-])C(Cl)=C(C)[O-].[Br-].[Co+3].c1c[nH]cn1.c1c[nH]cn1 [Compound 93] |  |  |  |  |  |  |  |  |  | not to be soluble | 
CC([O-])=CC(C)=NCCN=C(C)C=C(C)[O-].Cc1ncc[nH]1.Cc1ncc[nH]1.[Br-].[Co+3] [Compound 96] |  |  |  |  |  | > 4 | 10.2 | > 4 | 10.2 |  | moderately insoluble
